Results on ten molecules are retold here after patent publication US12492188B2, “1H-benzo[D]imidazole derivatives as TLR9 inhibitors for the treatment of fibrosis” (BRISTOL-MYERS SQUIBB COMPANY, priority 2020, dated 2025).

Common to all, as to type: cell-based
One assay has as its target T1, human TLR7 (Homo sapiens, UniProt Q9NYK1).
T1 construct: host or cells: HEK-Blue cells (HEK293-derived reporter line)
T1 sequence (Q9NYK1 27-1049): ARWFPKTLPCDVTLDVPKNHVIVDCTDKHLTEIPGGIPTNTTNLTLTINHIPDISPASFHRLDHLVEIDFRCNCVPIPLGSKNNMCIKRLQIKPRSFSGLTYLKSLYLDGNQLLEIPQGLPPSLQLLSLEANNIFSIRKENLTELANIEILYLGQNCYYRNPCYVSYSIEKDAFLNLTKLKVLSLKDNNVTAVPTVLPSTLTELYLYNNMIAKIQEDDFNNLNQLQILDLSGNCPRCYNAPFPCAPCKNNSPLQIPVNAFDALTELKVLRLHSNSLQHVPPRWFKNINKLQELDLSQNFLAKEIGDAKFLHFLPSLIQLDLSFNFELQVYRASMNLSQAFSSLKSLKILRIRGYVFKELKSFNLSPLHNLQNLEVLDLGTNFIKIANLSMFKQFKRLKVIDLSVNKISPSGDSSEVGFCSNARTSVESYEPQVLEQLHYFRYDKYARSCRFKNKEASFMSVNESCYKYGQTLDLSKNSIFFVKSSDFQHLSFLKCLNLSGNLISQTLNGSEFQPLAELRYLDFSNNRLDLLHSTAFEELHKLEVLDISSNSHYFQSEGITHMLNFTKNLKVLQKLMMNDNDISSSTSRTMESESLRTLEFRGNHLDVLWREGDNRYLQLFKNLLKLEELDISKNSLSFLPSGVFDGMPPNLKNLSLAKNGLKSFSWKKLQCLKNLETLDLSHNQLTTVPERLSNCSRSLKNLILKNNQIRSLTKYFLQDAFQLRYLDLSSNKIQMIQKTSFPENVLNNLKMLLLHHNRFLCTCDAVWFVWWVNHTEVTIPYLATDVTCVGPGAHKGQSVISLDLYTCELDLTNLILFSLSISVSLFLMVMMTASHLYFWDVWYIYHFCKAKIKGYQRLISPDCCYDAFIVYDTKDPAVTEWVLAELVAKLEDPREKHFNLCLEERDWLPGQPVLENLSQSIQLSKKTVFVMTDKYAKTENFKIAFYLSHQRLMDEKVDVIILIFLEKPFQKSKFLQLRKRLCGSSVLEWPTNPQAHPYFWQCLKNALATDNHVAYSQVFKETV
The experiment in a line: TLR7 inhibition reporter assay (HEK-Blue cells, secreted embryonic alkaline phosphatase reporter). The following applies: HEK-Blue cells overexpressing human TLR7, stimulated with gardiquimod 7.5 μM; read-out: TLR 7 IC50. A digest of the protocol:
(§1)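 Read-out is SEAP colour from HEK-Blue Detection medium after 22 h at 37 °C, converted to percent inhibition between agonist-plus-DMSO and reference-inhibitor wells. Receptor-overexpressing HEK-Blue cells received compound over 0.05 nM–50 μM for 30 min before agonist: gardiquimod 7.5 μM for TLR7, R848 15.9 μM for TLR8, ODN2006 5 nM for TLR9.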
A general note: A reporter such as luciferase makes a cellular process visible.

The next assay addresses T2, human TLR9 (Homo sapiens, UniProt Q9NR96).
T2 construct: host or cells: HEK-Blue cells (HEK293-derived reporter line)
T2 sequence (Q9NR96 26-1032): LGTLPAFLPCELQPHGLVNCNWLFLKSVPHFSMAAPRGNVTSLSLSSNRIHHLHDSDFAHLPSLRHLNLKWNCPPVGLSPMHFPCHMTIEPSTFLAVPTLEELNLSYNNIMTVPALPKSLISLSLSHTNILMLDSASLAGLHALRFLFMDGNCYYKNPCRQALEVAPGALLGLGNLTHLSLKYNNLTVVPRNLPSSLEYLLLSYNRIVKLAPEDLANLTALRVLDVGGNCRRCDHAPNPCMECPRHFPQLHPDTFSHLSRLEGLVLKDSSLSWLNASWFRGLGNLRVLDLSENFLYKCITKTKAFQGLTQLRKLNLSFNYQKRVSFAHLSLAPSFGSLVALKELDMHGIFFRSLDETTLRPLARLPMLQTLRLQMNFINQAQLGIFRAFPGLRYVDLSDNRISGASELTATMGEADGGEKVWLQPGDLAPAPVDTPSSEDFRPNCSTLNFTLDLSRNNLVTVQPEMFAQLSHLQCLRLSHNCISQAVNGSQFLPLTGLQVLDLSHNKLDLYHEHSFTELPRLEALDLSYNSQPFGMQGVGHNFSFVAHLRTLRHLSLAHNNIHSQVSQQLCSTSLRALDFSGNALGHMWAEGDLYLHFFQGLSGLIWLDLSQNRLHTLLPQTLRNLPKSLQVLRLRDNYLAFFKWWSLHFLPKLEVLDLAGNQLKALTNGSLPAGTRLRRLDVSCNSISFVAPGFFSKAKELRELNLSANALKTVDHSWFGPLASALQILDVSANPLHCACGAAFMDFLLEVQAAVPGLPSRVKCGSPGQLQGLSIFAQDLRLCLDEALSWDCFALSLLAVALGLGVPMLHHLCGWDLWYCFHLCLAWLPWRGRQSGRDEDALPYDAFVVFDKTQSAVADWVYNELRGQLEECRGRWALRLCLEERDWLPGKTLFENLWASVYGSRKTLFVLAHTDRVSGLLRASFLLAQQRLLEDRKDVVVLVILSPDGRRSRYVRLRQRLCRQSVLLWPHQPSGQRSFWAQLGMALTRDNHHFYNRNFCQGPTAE
The experiment in a line: TLR9 inhibition reporter assay (HEK-Blue cells, secreted embryonic alkaline phosphatase reporter). A digest of the protocol:
as §1

A further assay has as its target T3, human TLR8 (Homo sapiens, UniProt Q9NR97).
T3 construct: host or cells: HEK-Blue cells (HEK293-derived reporter line)
T3 sequence (Q9NR97 27-1041): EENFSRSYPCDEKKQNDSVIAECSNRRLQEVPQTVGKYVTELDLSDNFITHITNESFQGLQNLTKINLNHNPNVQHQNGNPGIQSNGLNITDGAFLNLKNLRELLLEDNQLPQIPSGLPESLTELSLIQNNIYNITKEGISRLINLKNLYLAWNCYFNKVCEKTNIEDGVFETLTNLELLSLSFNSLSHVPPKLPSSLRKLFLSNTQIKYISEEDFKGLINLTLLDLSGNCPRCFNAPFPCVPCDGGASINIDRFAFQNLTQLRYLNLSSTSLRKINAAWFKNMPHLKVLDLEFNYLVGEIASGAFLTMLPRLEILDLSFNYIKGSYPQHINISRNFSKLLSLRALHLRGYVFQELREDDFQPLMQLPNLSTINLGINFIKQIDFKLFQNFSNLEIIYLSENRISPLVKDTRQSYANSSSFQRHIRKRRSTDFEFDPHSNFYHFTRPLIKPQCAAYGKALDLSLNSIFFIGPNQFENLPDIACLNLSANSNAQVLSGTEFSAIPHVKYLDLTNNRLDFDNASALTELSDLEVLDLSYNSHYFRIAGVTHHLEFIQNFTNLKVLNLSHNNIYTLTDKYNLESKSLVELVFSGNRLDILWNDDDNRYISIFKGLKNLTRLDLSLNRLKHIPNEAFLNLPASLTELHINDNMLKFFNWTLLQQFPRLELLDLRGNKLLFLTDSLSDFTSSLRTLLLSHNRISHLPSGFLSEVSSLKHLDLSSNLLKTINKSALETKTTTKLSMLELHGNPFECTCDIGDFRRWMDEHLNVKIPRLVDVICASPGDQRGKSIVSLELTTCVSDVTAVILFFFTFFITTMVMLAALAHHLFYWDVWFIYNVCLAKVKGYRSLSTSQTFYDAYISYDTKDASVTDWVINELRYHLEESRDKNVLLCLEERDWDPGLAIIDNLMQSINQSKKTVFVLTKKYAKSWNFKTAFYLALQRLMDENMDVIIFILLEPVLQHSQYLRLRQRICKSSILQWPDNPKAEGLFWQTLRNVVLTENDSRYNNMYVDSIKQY
The experiment in a line: TLR8 inhibition reporter assay (HEK-Blue cells, secreted embryonic alkaline phosphatase reporter). The settings on record: HEK-Blue cells overexpressing human TLR8, stimulated with R848 15.9 μM; read-out: TLR 8 IC50. A digest of the protocol: as §1

[1] abbreviates: HEK-Blue cells overexpressing human TLR9, stimulated with ODN2006 5 nM, 22 hour incubation, reporter readout.
Where [2] appears, read: HEK-Blue cells overexpressing human TLR9, stimulated with ODN2006 5 nM, read-out: TLR 9 IC50.

Where two headings read alike, the source gives them in different places. Where only a bound is given, the exact number is not on record here.

As for `Cn1c(-c2ccc(S(C)(=O)=O)cc2)nc2c(F)cc(-c3ccc(CN4CCC(N5CCCC5)CC4)cc3)cc21` [Example 409, 4-fluoro-1-methyl-2-(4-(methylsulfonyl)phenyl)-6-(4-((4-(pyrrolidin-1-yl)piperidin-1-yl)methyl)phenyl)-1H-benzo[d]imidazole], the IC50 (as a rule, the concentration at which inhibition is half-maximal) is 1500 nM on human TLR7, 5.3 nM against human TLR9 (setting [1]), 5.3 nM at human TLR9 (setting [2]) and 1000 nM at human TLR8.
As for `Cc1cc(-c2nc3c(C)cc(C4CCN(C5CCN(CC(C)C)CC5)CC4)cc3[nH]2)cc(C)n1` [Example 60, 2-(2,6-dimethylpyridin-4-yl)-6-(1′-isobutyl-[1,4′-bipiperidin]-4-yl)-4-methyl-1H-benzo[d]imidazole], the IC50 at human TLR7 is 1500 nM; against human TLR9 (setting [1]), 45 nM; at human TLR9 (setting [2]), 45 nM; at human TLR8, more than 50000 nM.
For `CC(C)CN1C2CCC1CC(N1CCC(c3cc4nc(-c5ccc(S(C)(=O)=O)cc5)n(C)c4cc3F)CC1)C2` (stereo not drawn) [Example 247, 6-fluoro-5-(1-(8-isobutyl-8-azabicyclo[3.2.1]octan-3-yl)piperidin-4-yl)-1-methyl-2-(4-(methylsulfonyl)phenyl)-1H-benzo[d]imidazole], the IC50 at human TLR7 is 21100 nM; on human TLR9 it was 30 nM; at human TLR9 (setting [2]) it was 30 nM; on human TLR8, more than 50000 nM.
For `Cc1cc(-c2ccc(CN3CCC(N(C)C4CC4)CC3)cc2)cc2c1nc(-c1ccc(S(C)(=O)=O)cc1)n2C` [Example 393, N-cyclopropyl-1-(4-(1,4-dimethyl-2-(4-(methylsulfonyl)phenyl)-1H-benzo[d]imidazol-6-yl)benzyl)-N-methylpiperidin-4-amine], the IC50 on human TLR7 was more than 50000 nM; at human TLR9 (setting [1]) it was 330 nM; on human TLR9 (setting [2]), 334 nM; on human TLR8, 9500 nM.
Turning to `COc1cc(-c2nc3c(C)cc(C4CCN(C5CCN(CC(C)C)CC5)CC4)cc3n2C)cn2ncnc12` [Example 353, 6-(6-(1′-isobutyl-[1,4′-bipiperidin]-4-yl)-1,4-dimethyl-1H-benzo[d]imidazol-2-yl)-8-methoxy-[1,2,4]triazolo[1,5-a]pyridine], the IC50 on human TLR7 came to 100 nM; at human TLR9 (setting [2]) it was 16 nM; against human TLR9 (HEK-Blue human TLR9 reporter cells), 16 nM; at human TLR8, 8200 nM.
As for `Cn1c(-c2ccc(S(C)(=O)=O)cc2)nc2cc(C3CCN(C4CCN(CC5CC5)CC4)CC3)c(F)cc21` [Example 242, 5-(1′-(cyclopropylmethyl)-[1,4′-bipiperidin]-4-yl)-6-fluoro-1-methyl-2-(4-(methylsulfonyl)phenyl)-1H-benzo[d]imidazole], the IC50 at human TLR7 is 14200 nM; at human TLR9 it was 160 nM; on human TLR9 (setting [2]), 158 nM; on human TLR8, more than 50000 nM.
In the case of `CC(C)N1C2CCC1CC(N1CCC(c3ccc4nc(-c5ccc(S(C)(=O)=O)cc5)n(C)c4c3F)CC1)C2` (single isomer, unassigned) [Example 104, 7-fluoro-6-(1-(8-isopropyl-8-azabicyclo[3.2.1]octan-3-yl)piperidin-4-yl)-1-methyl-2-(4-(methylsulfonyl)phenyl)-1H-benzo[d]imidazole], the IC50 at human TLR7 is 39200 nM; against human TLR9 (setting [1]) it was 140 nM; on human TLR8 it was more than 50000 nM.
For `CS(=O)(=O)c1ccc(-c2nc3c(F)cc(-c4ccc(CN5CCC(N6CCCC6)CC5)cc4)cc3n2C2CC2)cc1` [Example 408, 1-cyclopropyl-4-fluoro-2-(4-(methylsulfonyl)phenyl)-6-(4-((4-(pyrrolidin-1-yl)piperidin-1-yl)methyl)phenyl)-1H-benzo[d]imidazole], the IC50 on human TLR7 was 1600 nM; against human TLR9 (setting [1]), 140 nM; at human TLR9 (setting [2]), 136 nM; on human TLR8, 900 nM.
For the molecule `COCCN1C2CCC1CC(N1CCC(c3cc4nc(-c5ccc(S(C)(=O)=O)cc5)n(C)c4cc3F)CC1)C2` (stereo not drawn) [Example 258, 6-fluoro-5-(1-(8-(2-methoxyethyl)-8-azabicyclo[3.2.1]octan-3-yl)piperidin-4-yl)-1-methyl-2-(4-(methylsulfonyl)phenyl)-1H-benzo[d]imidazole], the IC50 is 18800 nM at human TLR7, 100 nM at human TLR9, 100 nM on human TLR9 (setting [2]) and more than 50000 nM on human TLR8.
Consider `CC(C)N1CCC(N2CCC(c3cc4nc(-c5ccc(S(C)(=O)=O)cc5)n(C)c4cc3F)CC2)CC1` [Example 99, 6-fluoro-5-(1′-isopropyl-[1,4′-bipiperidin]-4-yl)-1-methyl-2-(4-(methylsulfonyl)phenyl)-1H-benzo[d]imidazole], for which the IC50 is 38300 nM on human TLR7, 360 nM against human TLR9 (setting [1]), 358 nM on human TLR9 (setting [2]) and more than 50000 nM at human TLR8.
